Source: publication PMC11642016 (International Journal of Molecular Sciences, 2024)
Where “and” joins values, the source holds several entries; their conditions need not be identical. Identical values can stand only once. Like-named read-outs stand apart in the source and are kept apart here.

Columns and labels:
Fadu cells = assay: CellTiter-Glo luminescent cell viability assay, Fadu; conditions: for viability at 2.8 µM: read-out: Cell Viability (% of Control) 2.8 µM, Fadu; for viability at 2.8 µM / viability at 8.3 µM / viability at 25 µM: mean ± SD, n = 2; for viability at 8.3 µM: read-out: Cell Viability (% of Control) 8.3 µM, Fadu; for viability at 25 µM: read-out: Cell Viability (% of Control) 25 µM, Fadu
[1] = test system: PANC-1, Fadu, A2058 and EBC-1 cell lines; parameters: method as in PMID 35455465; conditions: 10 µM; cited from earlier work
PANC-1 and Fadu cells = assay: CellTiter-Glo viability, statements covering both cancer cell lines; type: cell-based, human; conditions: Homo sapiens; 25 µM; in either of the cancer cell lines; read-out: drop in viability at 25 µM
PANC-1 cells = assay: CellTiter-Glo luminescent cell viability assay, PANC-1; conditions: for viability at 2.8 µM: read-out: Cell Viability (% of Control) 2.8 µM, PANC-1; for viability at 2.8 µM / viability at 8.3 µM / viability at 25 µM: mean ± SD, n = 2; for viability at 8.3 µM: read-out: Cell Viability (% of Control) 8.3 µM, PANC-1; for viability at 25 µM: read-out: Cell Viability (% of Control) 25 µM, PANC-1
[2] = CellTiter-Glo luminescent cell viability assay, primary fibroblasts; conditions: human, primary skin fibroblasts (non-tumorous), Primer fibroblast Cell viability (% of controll), 72 h, dose–response, individual replicates
Method: (§1) Primary fibroblast cultures were prepared from human skin biopsies and maintained in DMEM supplemented with 10% FBS, 1% penicillin-streptomycin, and 1% MEM Non-Essential Amino Acids Solution (Thermo Fisher Scientific). […] All cell lines were cultured in a humidified atmosphere at 37 °C and 5% CO2, passaged twice a week, and the experiments were performed on cells between passage 5 and 15. The cell lines were routinely screened for the absence of mycoplasma infection (DAPI staining).
(§2) The effects of the synthesized compounds on cell viability were measured using the CellTiter-Glo® luminescent cell viability assay (Promega, Madison, WI, USA), according to the manufacturer’s instructions. Briefly, cells were seeded onto a flat-bottomed, white 96-well plate (BRANDplates, cat. no.: 781965)), with the following densities: PANC-1: 750 cells/well, Fadu: 2000 cells/well, primary fibroblasts: 2000 cells/well, HEK293T WT: 1000 cells/well, HEK293T CLPP^−/−: 2500 cells/well. After seeding, cells were incubated for a further 48 h before treatment. Cells were treated with the compounds for 72 h. Three concentrations (25.0 µM; 8.3 µM; 2.8 µM) were applied during the initial cell viability screening, while for the determination of dose–response curves, 1.5-fold serially diluted compound concentrations were applied (range: 26 µM–0.7 µM). After treatment, the luminescence signal was recorded using a microplate reader (BioTek Synergy 2 Multi-Mode Reader, BioTek, Winooski, VT, USA).
(§3) Data analysis was performed using GraphPad Prism 9.5.0 software (GraphPad Software, San Diego, CA, USA). […] The dose–response curves were generated by four-parameter nonlinear regression, and the IC50 values were determined as the means ± SEM of the best-fit values of 3 independent measurements. The R^2 values were consistently above 0.93, indicating a strong fit of the model to the experimental data (Supplementary S.89). […] Dunnett’s post hoc test was applied to adjust for multiple comparisons, minimizing the likelihood of false positive results. Assumptions for ANOVA, including normality (assessed via QQ plots) and homogeneity of variance (tested using the Brown–Forsythe test), were verified. The following significance levels were applied: * p < 0.05, ** p < 0.01, *** p < 0.001, **** p < 0.0001. […] The tumor selectivity of the compounds was quantitatively characterized by the selectivity index (SI). This parameter was calculated as the ratio of the average best-fit IC50 value for primary fibroblasts and the best-fit IC50 value for the corresponding tumor cells (PANC-1 or Fadu).

[3] = test system: non-tumorous primary fibroblast cells; assay: as above; conditions: for Primer fibroblast Cell viability (% of controll): dose–response, individual replicates
Method: as §1, §2, §3

PANC-1 and A2058 cells = test system: PANC-1 and A2058 cells; parameters: method as in PMID 35455465; conditions: 24 h exposure time; cited from earlier work
[4] = 1 μM, 72 h, dose–response, individual replicates
[5] = 1.5 μM, 72 h, dose–response, individual replicates
[6] = 2.3 μM, 72 h, dose–response, individual replicates
[7] = 3.4 μM, 72 h, dose–response, individual replicates
[8] = 5.1 μM, 72 h, dose–response, individual replicates
[9] = 7.7 μM, 72 h, dose–response, individual replicates
[10] = 17.3 μM, 72 h, dose–response, individual replicates
[11] = 26 μM, 72 h, dose–response, individual replicates
[12] = Homo sapiens, FaDu, 72 h, 72 h, first-set screening
[13] = Homo sapiens, FaDu, 72 h, 72 h, second-set screening
[14] = Homo sapiens, PANC-1, 72 h, 72 h, first-set screening
[15] = Homo sapiens, PANC-1, 72 h, 72 h, second-set screening

Compound: NCC#Cc1ccc(CN2C(=O)C3=C(CCN(Cc4ccc(-n5cc(-c6ccccc6)nn5)cc4)C3)N3CCN=C23)cc1 [I/B, reference compound]
- Fadu Cell viability (% of controll) (Fadu cells; [4]): 116 % of controll
- Fadu Cell viability (% of controll) (Fadu cells; [5]): 108 % of controll and 114 % of controll
- Fadu Cell viability (% of controll) (Fadu cells; [6]): 112 % of controll
- Fadu Cell viability (% of controll) (Fadu cells; [7]): 112 % of controll
- Fadu Cell viability (% of controll) (Fadu cells; [8]): 107 % of controll
- Fadu Cell viability (% of controll) (Fadu cells; [9]): 100 % of controll and 97 % of controll
- Fadu Cell viability (% of controll) (Fadu cells; [10]): 0 % of controll
- Fadu Cell viability (% of controll) (Fadu cells; [11]): 0 % of controll
- viability at 2.8 µM (Fadu cells; [12]): 112 ± 7%
- viability at 2.8 µM (Fadu cells; [13]): 112 ± 7%
- viability at 8.3 µM (Fadu cells; [12]): 103 ± 6%
- viability at 8.3 µM (Fadu cells; [13]): 103 ± 6%
- viability at 25 µM (Fadu cells; [12]): 0%
- viability at 25 µM (Fadu cells; [13]): 0%
- viability at 0.7 µM (Fadu cells; Homo sapiens, FaDu, 72 h, read-out: Fadu Cell viability (% of controll), 0.7 μM, 72 h, dose–response, individual replicates): 106%
- viability at 1 µM (Fadu cells; Homo sapiens, FaDu, 72 h, read-out: Fadu Cell viability (% of controll), 1 μM, 72 h, dose–response, individual replicates): 112%
- viability at 1.5 µM (Fadu cells; Homo sapiens, FaDu, 72 h, read-out: Fadu Cell viability (% of controll), 1.5 μM, 72 h, dose–response, individual replicates): 109%
- viability at 2.3 µM (Fadu cells; Homo sapiens, FaDu, 72 h, read-out: Fadu Cell viability (% of controll), 2.3 μM, 72 h, dose–response, individual replicates): 110%
- viability at 3.4 µM (Fadu cells; Homo sapiens, FaDu, 72 h, read-out: Fadu Cell viability (% of controll), 3.4 μM, 72 h, dose–response, individual replicates): 105%
- viability at 5.1 µM (Fadu cells; Homo sapiens, FaDu, 72 h, read-out: Fadu Cell viability (% of controll), 5.1 μM, 72 h, dose–response, individual replicates): 104%
- viability at 7.7 µM (Fadu cells; Homo sapiens, FaDu, 72 h, read-out: Fadu Cell viability (% of controll), 7.7 μM, 72 h, dose–response, individual replicates): 93%
- viability at 17.3 µM (Fadu cells; Homo sapiens, FaDu, 72 h, read-out: Fadu Cell viability (% of controll), 17.3 μM, 72 h, dose–response, individual replicates): 0%
- viability at 26 µM (Fadu cells; Homo sapiens, FaDu, 72 h, read-out: Fadu Cell viability (% of controll), 26 μM, 72 h, dose–response, individual replicates): 0%
- IC50 (Fadu cells; Homo sapiens, FaDu, 72 h, read-out: IC50 Value ± SEM Fadu, 72 h treatment, best-fit values, n = 3): 10.3 ± 0.17 µM
- IC50 (Fadu cells; Homo sapiens, FaDu, read-out: Fadu IC50 values, Mean, mean of independently fitted replicate IC50 values (Supplement S.6)): 10.4 µM
- IC50 (Fadu cells; Homo sapiens, FaDu, read-out: Fadu IC50 values, individual replicates n1-n3, IC50 independently determined for each replicate measurement (Supplement S.6)): 11 µM
- Selectivity Index (SI) Fibroblast/Fadu (Fadu cells; ratio of mean best-fit IC50 for primary fibroblasts and best-fit IC50 for Fadu): 1.1
- IC50 (Fadu cells; read-out: Fadu IC50 values, individual replicates n1-n3, IC50 independently determined for each replicate measurement (Supplement S.6)): 9.91 µM and 10.2 µM
- viable cells after treatment in colony formation assays [1]: no viable cells could be observed
- viability at 25 µM (PANC-1 and Fadu cells): 0 to 1%
- PANC-1 Cell viability (% of controll) (PANC-1 cells; 0.7 μM, 72 h, dose–response, individual replicates): 106 % of controll and 104 % of controll
- PANC-1 Cell viability (% of controll) (PANC-1 cells; [4]): 106 % of controll and 107 % of controll
- PANC-1 Cell viability (% of controll) (PANC-1 cells; [5]): 111 % of controll
- PANC-1 Cell viability (% of controll) (PANC-1 cells; [6]): 113 % of controll
- PANC-1 Cell viability (% of controll) (PANC-1 cells; [7]): 113 % of controll
- PANC-1 Cell viability (% of controll) (PANC-1 cells; [8]): 109 % of controll and 116 % of controll
- PANC-1 Cell viability (% of controll) (PANC-1 cells; [9]): 72 % of controll and 90 % of controll
- PANC-1 Cell viability (% of controll) (PANC-1 cells; [10]): 0 % of controll
- PANC-1 Cell viability (% of controll) (PANC-1 cells; [11]): 0 % of controll
- viability at 2.8 µM (PANC-1 cells; [14]): 113 ± 4%
- viability at 2.8 µM (PANC-1 cells; [15]): 113 ± 4%
- viability at 8.3 µM (PANC-1 cells; [14]): 61 ± 22%
- viability at 8.3 µM (PANC-1 cells; [15]): 61 ± 22%
- viability at 25 µM (PANC-1 cells; [14]): 0%
- viability at 25 µM (PANC-1 cells; [15]): 0%
- IC50 (PANC-1 cells; Homo sapiens, PANC-1, 72 h, read-out: IC50 Value ± SEM PANC-1, 72 h treatment, best-fit values, n = 3): 8.2 ± 0.41 µM
- viability at 0.7 µM (PANC-1 cells; Homo sapiens, PANC-1, 72 h, read-out: PANC-1 Cell viability (% of controll), 0.7 μM, 72 h, dose–response, individual replicates): 102%
- viability at 1 µM (PANC-1 cells; Homo sapiens, PANC-1, 72 h, read-out: PANC-1 Cell viability (% of controll), 1 μM, 72 h, dose–response, individual replicates): 111%
- viability at 1.5 µM (PANC-1 cells; Homo sapiens, PANC-1, 72 h, read-out: PANC-1 Cell viability (% of controll), 1.5 μM, 72 h, dose–response, individual replicates): 111%
- viability at 2.3 µM (PANC-1 cells; Homo sapiens, PANC-1, 72 h, read-out: PANC-1 Cell viability (% of controll), 2.3 μM, 72 h, dose–response, individual replicates): 112%
- viability at 3.4 µM (PANC-1 cells; Homo sapiens, PANC-1, 72 h, read-out: PANC-1 Cell viability (% of controll), 3.4 μM, 72 h, dose–response, individual replicates): 108%
- viability at 5.1 µM (PANC-1 cells; Homo sapiens, PANC-1, 72 h, read-out: PANC-1 Cell viability (% of controll), 5.1 μM, 72 h, dose–response, individual replicates): 112%
- viability at 7.7 µM (PANC-1 cells; Homo sapiens, PANC-1, 72 h, read-out: PANC-1 Cell viability (% of controll), 7.7 μM, 72 h, dose–response, individual replicates): 72%
- viability at 17.3 µM (PANC-1 cells; Homo sapiens, PANC-1, 72 h, read-out: PANC-1 Cell viability (% of controll), 17.3 μM, 72 h, dose–response, individual replicates): 0%
- viability at 26 µM (PANC-1 cells; Homo sapiens, PANC-1, 72 h, read-out: PANC-1 Cell viability (% of controll), 26 μM, 72 h, dose–response, individual replicates): 0%
- IC50 (PANC-1 cells; Homo sapiens, PANC-1, read-out: PANC-1 IC50 values, Mean, mean of independently fitted replicate IC50 values (Supplement S.6)): 8.19 µM
- IC50 (PANC-1 cells; Homo sapiens, PANC-1, read-out: PANC-1 IC50 values, individual replicates n1-n3, IC50 independently determined for each replicate measurement (Supplement S.6)): 8.43 µM
- Selectivity Index (SI) Fibroblast/PANC-1 (PANC-1 cells; ratio of mean best-fit IC50 for primary fibroblasts and best-fit IC50 for PANC-1): 1.3
- IC50 (PANC-1 cells; read-out: PANC-1 IC50 values, individual replicates n1-n3, IC50 independently determined for each replicate measurement (Supplement S.6)): 7.99 µM and 8.15 µM
- viability at 72 h, 0.7 µM ([2]; 0.7 μM): 93%
- viability at 72 h, 1 µM ([2]; 1 μM): 99%
- viability at 72 h, 1.5 µM ([2]; 1.5 μM): 105%
- viability at 72 h, 2.3 µM ([2]; 2.3 μM): 100%
- viability at 72 h, 3.4 µM ([2]; 3.4 μM): 101%
- viability at 72 h, 5.1 µM ([2]; 5.1 μM): 104%
- viability at 72 h, 7.7 µM ([2]; 7.7 μM): 92%
- viability at 72 h, 17.3 µM ([2]; 17.3 μM): 0%
- viability at 72 h, 26 µM ([2]; 26 μM): 0%
- Primer fibroblast Cell viability (% of controll) ([3]; 0.7 μM, 72 h): 98 % of controll and 97 % of controll
- Primer fibroblast Cell viability (% of controll) ([3]; 1.5 μM, 72 h): 108 % of controll and 98 % of controll
- Primer fibroblast Cell viability (% of controll) ([3]; 2.3 μM, 72 h): 107 % of controll and 98 % of controll
- Primer fibroblast Cell viability (% of controll) ([3]; 3.4 μM, 72 h): 109 % of controll and 98 % of controll
- Primer fibroblast Cell viability (% of controll) ([3]; 5.1 μM, 72 h): 110 % of controll and 98 % of controll
- Primer fibroblast Cell viability (% of controll) ([3]; 7.7 μM, 72 h): 107 % of controll
- Primer fibroblast Cell viability (% of controll) ([3]; 17.3 μM, 72 h): 0 % of controll
- Primer fibroblast Cell viability (% of controll) ([3]; 26 μM, 72 h): 0 % of controll
- IC50 ([3]; Homo sapiens, Fibroblast, 72 h, read-out: IC50 Value ± SEM Primary Fibroblast, 72 h treatment, best-fit values, n = 3): 11 ± 0.65 µM
- IC50 ([3]; Homo sapiens, Fibroblast, read-out: Primary fibroblast IC50 values, Mean, mean of independently fitted replicate IC50 values (Supplement S.6), ONC201 value mathematically estimated from inflection point): 11.2 µM
- IC50 ([3]; Homo sapiens, Fibroblast, read-out: Primary fibroblast IC50 values, individual replicates n1-n3, IC50 independently determined for each replicate (Supplement S.6), ONC201 value mathematically estimated from inflection point, viability stayed above 50%): 11.1 µM
- IC50 ([3]; read-out: Primary fibroblast IC50 values, individual replicates n1-n3, IC50 independently determined for each replicate (Supplement S.6), ONC201 value mathematically estimated from inflection point, viability stayed above 50%): 11.1 µM and 11.4 µM
- apoptosis induction (PANC-1 and A2058 cells): far more efficient in apoptosis induction than ONC201
